1 compound from paper PMC3681751, “Identification of a Novel Antimicrobial Peptide from Human Hepatitis B Virus Core Protein Arginine-Rich Domain (ARD)” (PLoS Pathogens, 2013) can be followed below.

For one data set, the system named is Vero cells. Nature of the data set: CFSE cell proliferation assay. It counts as cell-based, monkey. Conditions: 5, 25 and 100 µM for 1 hour; flow cytometry. As to the method: To set up CFSE cell proliferation assay, 293 cells (human kidney origin) and Vero cells (monkey kidney origin) were resuspended in PBS to a final concentration of 10^6 cells/ml, before incubation with 10 µM CFSE dye (CellTrace CFSE cell proliferation kit, Invitrogen) at 37°C for 10 min. To quench the staining, ice-old culture media were then added and incubated on ice for 5 min. Labeled cells were then pelleted and washed three times by fresh medium containing 10% FBS before seeding into six well plates at a density of 3.3×10^5cells/well. After 20 h, the medium was removed and incubated with fresh medium containing 5, 25 and 100 µM HBc 147-183 for one hour (FITC-labeled ARD peptide had been largely internalized in 10 minutes after the addition of ARD peptides to the medium of HepG2 cells). Forty-eight hours later, cells were harvested and analyzed by flow cytometry (FACSCanto, BD Bioscience).

Data set [1] in a line: In vitro peptide-LPS binding on streptavidin beads (LAL test). More on the design: species or system Pseudomonas aeruginosa. As to conditions: biotinylated peptide 0-2.5 µM on streptavidin beads, 5 µg/ml LPS; unbound LPS by LAL test; triplicates. How it is done: Several kinds of peptide-LPS or peptide-Lipid A binding assays were performed in this study: 1) Streptavidine-conjugated beads (Dynabeads MyOne Streptavidin T1, Invitrogen) were blocked by P. aeruginosa LPS (Sigma) at 37°C for 1.5 hour. After washing with PBST (PBS, pH 7.4 containing 0.1% (w/v) Tween-20), aliquots containing 250 pmol streptavidine-conjugated beads were incubated with a reaction mixture overnight at 4°C. The reaction mixture was prepared by mixing increasing amounts of biotinylated peptide HBc147-183 (0, 0.004, 0.02, 0.1, 0.5 and 2.5 µM) and 5 µg/ml P. aeruginosa LPS (Sigma) or 200 µg/ml E. coli lipid A (Sigma), at 37°C for 3 hour. After incubation overnight at 4°C, the reduction of LPS (or Lipid A) in the supernatants were measured by the Limulus Amebocyte Lysate (LAL) test (Charles River Endosafe) with an ELISA reader (Molecular Devices). The amount (EU/ml) of LPS was calculated according to the standard curve prepared with Endosafe Control Srandard Endotoxin. […] After trypsinization, the trypsin-released LPS in the supernatants were collected and measured by the Limulus Amebocyte Lysate (LAL) test. […] Plate-bound HBc147-183 was measured by streptavidin conjugated with HRP (1∶10000 dilution) for 1 hour at 37°C. […] The absorption was measured at 450 nm with a reference wavelength at 655 nm.

In data set [2] the test system is P. aeruginosa. Nature of the data set: Effect of added LPS on bactericidal activity. Type of data set: cell-based, Pseudomonas aeruginosa. As to conditions: 2 µM peptide (1×MBC), LPS from P. aeruginosa or E. coli at 50 µg/ml, 3 hours, triplicates. As to the method:
To determine whether LPS of Gram-negative bacteria could serve as a potential target of HBc147-183, LPS (0.05 to 50 µg/ml) from either P. aeruginosa or E. coli (Sigma) were incubated with both P. aeruginosa and 2 µM HBc147-183 for three hours, respectively. […] In addition, HBc147-183 preferentially bound to the LPS from P. aeruginosa, rather than that from E. coli. However, the addition of anti-LPS antibody (Genetex Co.) cannot sufficiently neutralize the bactericidal activity of HBc147-183 (Figure 5). […] Alternatively, HBc147-183 and the anti-LPS polyclonal antibody used here could bind predominantly to two different epitopes on the LPS.
Figure 5 Dose response effects of LPS and LPS antibody (triangle) on the bactericidal activity of HBc147-183. LPS from P. aeruginosa (square) and E. coli (diamond), and LPS antibody (triangle) were mixed with P. aeruginosa and HBc147-183 (1×MBC) for 3 hours. The bacteria were then plated on MH agar for the measurement of viability. Samples were measured in triplicates.

The next data set relates to C. albicans (ATCC 10231). It counts as cell-based, Candida albicans. How it is done: The antimicrobial activities of HBc ARD peptides were tested using a number of bacterial strains from ATCC, including Pseudomonas aeruginosa Migula strain (ATCC 27853, ampicillin-resistant), Pseudomonas aeruginosa Migula strain (ATCC 9027, ampicillin-resistant), Klebsiella pneumoniae strain (ATCC 17593), Escherichia coli strain (ATCC 25922), Staphylococcus aureus subsp. strain (ATCC 25923, methicillin-resistant), Staphylococcus aureus subsp. strain (ATCC 29213, methicillin-resistant), Staphylococcus aureus subsp. strain (ATCC 19636, methicillinresistant), and Candida albicans strain (ATCC 10231).
All peptides were purchased from Yao-Hong Biotechnology Inc. (Taipei, Taiwan). Vendors provided data of peptide characterizations, including HPLC and Mass (data not shown). Antimicrobial activity was determined as described with some modifications as detailed below. Bacteria were grown overnight in Mueller–Hinton broth (Difco) at 37°C, and during the mid-logarithmic phase, bacteria were diluted to 10^6 CFU (colony formation unit)/ml in phosphate buffer (10 mM sodium phosphate and 50 mM sodium chloride, pH 7.2). Peptides were serially diluted in the same buffer. Fifty microliter (µl) of bacteria was mixed with fifty µl of peptides at varying concentrations followed by incubation at 37°C for 3 hours without shaking. At the end of incubation, bacteria were placed on Mueller-Hinton broth agar plates, and allowed growth at 37°C overnight for measurement of minimal bactericidal concentration (MBC). […] All peptides were tested in triplicate.

For data set [3], the system named is P. aeruginosa. Description: Killing kinetics. It counts as cell-based, Pseudomonas aeruginosa. Conditions: 2 µM peptide (1×MBC), 37°C, triplicates. As to the method: For measurement of killing kinetics, bacteria and peptides were prepared as described above. Fifty µl of bacteria were mixed with fifty µl of peptides at the concentrations corresponding to MBC and were incubated at 37°C. At the indicated time, bacteria were serially diluted and placed on Mueller-Hinton broth agar plates for the viability measurement.

Molecules are shown by their SMILES. Where two headings read alike, the source gives them in different places. Residues, ends and D or L forms follow the SMILES beside them.

Regarding `CC(C)[C@H](NC(=O)[C@@H](NC(=O)[C@@H](N)[C@@H](C)O)C(C)C)C(=O)N[C@@H](CCCNC(=N)N)C(=O)N[C@@H](CCCNC(=N)N)C(=O)N[C@@H](CCCNC(=N)N)C(=O)NCC(=O)N[C@@H](CCCNC(=N)N)C(=O)N[C@@H](CO)C(=O)N1CCC[C@H]1C(=O)N[C@@H](CCCNC(=N)N)C(=O)N[C@@H](CCCNC(=N)N)C(=O)N[C@@H](CCCNC(=N)N)C(=O)N[C@H](C(=O)N1CCC[C@H]1C(=O)N[C@@H](CO)C(=O)N1CCC[C@H]1C(=O)N[C@@H](CCCNC(=N)N)C(=O)N[C@@H](CCCNC(=N)N)C(=O)N[C@@H](CCCNC(=N)N)C(=O)N[C@@H](CCCNC(=N)N)C(=O)N[C@@H](CO)C(=O)N[C@@H](CCC(N)=O)C(=O)N[C@@H](CO)C(=O)N1CCC[C@H]1C(=O)N[C@@H](CCCNC(=N)N)C(=O)N[C@@H](CCCNC(=N)N)C(=O)N[C@@H](CCCNC(=N)N)C(=O)N[C@@H](CCCNC(=N)N)C(=O)N[C@@H](CO)C(=O)N[C@@H](CCC(N)=O)C(=O)N[C@@H](CO)C(=O)N[C@@H](CCCNC(=N)N)C(=O)N[C@@H](CCC(=O)O)C(=O)N[C@@H](CO)C(=O)N[C@@H](CCC(N)=O)C(=O)N[C@@H](CS)C(=O)O)[C@@H](C)O` [HBc147-183] (H-TVVRRRGRSPRRRTPSPRRRRSQSPRRRRSQSRESQC-OH; N-terminus and C-terminus assumed), in the data set on Vero cells, the “Effect on cell proliferation (CFSE intensity, day 3 vs mock)” value is “no significant effect”. For the same compound, the “Binding to LPS” value in data set [1] is on record as “capable of binding to LPS”. Moreover, the “Bactericidal activity in the presence of LPS” value in the data set on P. aeruginosa [2] is on record as “significantly reduced”. Further, the “Antimicrobial activity, MBC” value in the data set with C. albicans (ATCC 10231) (ATCC 10231, 3 h, pH 7.2) was around 8 µM; in the data set with C. albicans (ATCC 10231) (fungi, 3 h at 37°C in phosphate buffer pH 7.2, triplicate) it was around 36.7 µg/mL. Besides, the “Time to complete killing” value with P. aeruginosa [3] was at most 20 min.
